Measurements from ChEMBL document CHEMBL4819050, “Discovery of a novel series of guanidinebenzoates as gut-restricted enteropeptidase and trypsin dual inhibitors for the treatment of metabolic syndrome” (Bioorg Med Chem Lett, 2021).

Experiments:
Bos taurus [1] = species: Bos taurus; experiment: Inhibition of bovine trypsin assessed as protease activity using D-CHA-AR-AMC as substrate at 10 uM by fluorescence assay relative to control; design: scale not given: the % may be the effect or the level left
Bos taurus [2] = species: Bos taurus; experiment: Inhibition of bovine trypsin assessed as protease activity using D-CHA-AR-AMC as substrate at 1 uM by fluorescence assay relative to control; design: scale not given: the % may be the effect or the level left
[3] = molecular target: Enteropeptidase (Homo sapiens) (UniProt P98073); experiment: Inhibition of full length recombinant human EP expressed in CHO cells assessed as protease activity using […] as substrate at 1 uM by fluorescence assay relative to control; design: scale not given: the % may be the effect or the level left
[4] = molecular target: Enteropeptidase (Homo sapiens) (UniProt P98073); experiment: Inhibition of full length recombinant human EP expressed in CHO cells assessed as protease activity using […] as substrate at 0.1 uM by fluorescence assay relative to control; design: scale not given: the % may be the effect or the level left
Bos taurus [5] = species: Bos taurus; experiment: Inhibition of bovine trypsin assessed as protease activity using D-CHA-AR-AMC as substrate at 0.1 uM by fluorescence assay relative to control; design: scale not given: the % may be the effect or the level left
[6] = molecular target: Enteropeptidase (Homo sapiens) (UniProt P98073); experiment: Inhibition of full length recombinant human EP expressed in CHO cells assessed as protease activity using […] as substrate at 10 uM by fluorescence assay relative to control; design: scale not given: the % may be the effect or the level left
[7] = Apparent permeability from apical to basolateral side in dog MDCK cells; format: ADME, cell-based, Canis lupus familiaris

Sequence of Enteropeptidase (Homo sapiens) (P98073 2-784 limits assumed): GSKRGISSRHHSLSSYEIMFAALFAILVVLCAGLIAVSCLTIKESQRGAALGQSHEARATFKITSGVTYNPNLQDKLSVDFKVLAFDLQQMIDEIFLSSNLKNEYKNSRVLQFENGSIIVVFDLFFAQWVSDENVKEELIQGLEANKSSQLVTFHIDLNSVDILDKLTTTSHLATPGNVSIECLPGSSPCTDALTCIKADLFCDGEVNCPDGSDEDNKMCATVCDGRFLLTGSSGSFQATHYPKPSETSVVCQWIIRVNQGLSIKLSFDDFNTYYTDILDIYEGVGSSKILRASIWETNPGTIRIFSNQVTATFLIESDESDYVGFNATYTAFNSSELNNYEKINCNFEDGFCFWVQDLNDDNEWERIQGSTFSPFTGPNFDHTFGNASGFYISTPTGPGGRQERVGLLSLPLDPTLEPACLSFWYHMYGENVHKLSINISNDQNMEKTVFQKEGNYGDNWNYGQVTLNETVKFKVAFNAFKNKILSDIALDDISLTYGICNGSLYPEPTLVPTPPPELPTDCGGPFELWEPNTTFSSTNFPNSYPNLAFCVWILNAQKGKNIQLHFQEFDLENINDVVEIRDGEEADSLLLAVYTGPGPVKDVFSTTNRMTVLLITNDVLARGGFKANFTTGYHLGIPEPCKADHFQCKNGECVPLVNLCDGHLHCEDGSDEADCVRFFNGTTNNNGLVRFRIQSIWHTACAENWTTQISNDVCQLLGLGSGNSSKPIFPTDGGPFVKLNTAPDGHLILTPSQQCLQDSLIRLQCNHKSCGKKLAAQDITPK
Sequence of Enteropeptidase (Homo sapiens) (P98073 785-1019 limits assumed): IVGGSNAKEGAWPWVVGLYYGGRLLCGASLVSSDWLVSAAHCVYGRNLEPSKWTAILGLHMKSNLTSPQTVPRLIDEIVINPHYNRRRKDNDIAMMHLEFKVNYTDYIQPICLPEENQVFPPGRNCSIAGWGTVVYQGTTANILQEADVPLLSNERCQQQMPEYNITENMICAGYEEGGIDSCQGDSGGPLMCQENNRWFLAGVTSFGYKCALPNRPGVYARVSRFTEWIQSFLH

Structure (SMILES) | Activity (Bos taurus [1]) [%] | Activity (Bos taurus [2]) [%] | Activity [3] [%] | Activity [4] [%] | Activity (Bos taurus [5]) [%] | Activity [6] [%] | Papp A→B [7] [×10⁻⁶ cm/s]
N=C1NCCN1c1ccc(C(=O)Oc2ccc(CC(=O)O)n3ncnc23)cc1 | 93 | 58.3 | 57.9 | 10.5 | 10.9 | 93.2 | 
N=C(N)Nc1ccc(C(=O)Oc2cc(CC(=O)O)cn3ncnc23)cc1 | 100 | 100 | 58.8 | 13.1 | 81.7 | 101 | 
N=C(N)NCc1ccc(C(=O)Oc2ccc(CC(=O)O)n3ncnc23)cc1 | 72.5 | 19.9 | 43.7 | 10.9 | 3.87 | 83.6 | 
CONC(=N)c1ccc(C(=O)Oc2ccc(CC(=O)O)n3ncnc23)cc1 | 18.2 | -3.33 | 9.05 | 2.43 | -3.11 | 34 | 
N=C(N)Nc1ccc(C(=O)Oc2ccc(CC(=O)O)n3ncnc23)s1 | 99.8 | 99.9 | 100 | 82 | 93.8 | 100 | 
N=C(N)Nc1ccc(C(=O)Oc2ccc(C3OC(=O)NC3=O)n3ncnc23)cc1 (centres undefined) | 100 | 100 | 101 | 73 | 99.8 | 100 | 
CNC(=N)Nc1ccc(C(=O)Oc2ccc(CC(=O)O)n3ncnc23)cc1 | 97.7 | 57.1 | 80.1 | 15.3 | 9.6 | 97.9 | 
N=C(N)Nc1ccc(C(=O)Oc2ccc(CC(=O)O)n3ncnc23)c(C(F)(F)F)c1 | 88.7 | 16.6 | 38.5 | 4.14 | 2.31 | 98.9 | 
N=C(N)Nc1ccc(C(=O)Oc2ccc(CC(=O)O)n3ncnc23)cc1O | 100 | 73.1 | 92.1 | 34.3 | 12.4 | 101 | 
COc1cc(C(=O)Oc2ccc(CC(=O)O)n3ncnc23)ccc1NC(=N)N | 99.9 | 72.4 | 87.1 | 20.8 | 13.8 | 101 | 
O=C(O)Cc1ccc(OC(=O)c2ccc(C3=NCCN3)cc2)c2ncnn12 | 21.6 | 2.66 | 16.9 | 4.69 | -0.36 | 58.6 | 
N#Cc1cc(C(=O)Oc2ccc(CC(=O)O)n3ncnc23)ccc1NC(=N)N | 29.9 | 12.3 | -6.26 | -3.01 | 0.95 | 32.1 | 
CNC(=N)c1ccc(C(=O)Oc2ccc(CC(=O)O)n3ncnc23)cc1 | 66.5 | 8.66 | 11.3 | -0.79 | 5.66 | 52.3 | 
N=C(N)Nc1ccc(C(=O)Oc2ccc(CC(=O)O)n3ncnc23)cc1Cl | 99.8 | 56.6 | 84.4 | 18.2 | 6.34 | 101 | 
N=C(N)Nc1ccc(C(=O)Oc2ccc(CCC(=O)O)n3ncnc23)cc1 | 100 | 100 | 101 | 35 | 99.8 | 100 | 
O=C(O)Cc1ccc(OC(=O)c2ccc(NC3=NCCCN3)cc2)c2ncnn12 | -7.38 | -3.49 | -2 | 1.03 | 2.91 | -10.4 | 
O=C(O)Cc1ccc(OC(=O)c2ccc(NC3=NCCN3)cc2)c2ncnn12 | -7.45 | -2.97 | -2.47 | -0.28 | 0.21 | -2.75 | 

The remaining lines, values ahead:

Activity (Bos taurus [1]) [%] | Activity (Bos taurus [2]) [%] | Activity [3] [%] | Activity [4] [%] | Activity (Bos taurus [5]) [%] | Activity [6] [%] | Papp A→B [7] [×10⁻⁶ cm/s] | Structure (SMILES)
10.1 | -0.45 | -10.1 | -10.7 | -8.04 | -10.8 |  | C/C(=N\O)Nc1ccc(C(=O)Oc2ccc(CC(=O)O)n3ncnc23)cc1
99.9 | 97.6 | 100 | 81.2 | 43.5 | 100 |  | N=C(N)Nc1ccc(C(=O)Oc2ccc(CC(=O)O)n3ncnc23)c(Cl)c1
99.7 | 49 | 59.9 | 10.3 | 9.45 | 101 |  | Cc1cc(NC(=N)N)ccc1C(=O)Oc1ccc(CC(=O)O)n2ncnc12
35.8 | 2.46 | 1.9 | -1.6 | -2.06 | 13.6 |  | N#CNC(=N)c1ccc(C(=O)Oc2ccc(CC(=O)O)n3ncnc23)cc1
100 | 100 | 100 | 81.2 | 99.3 | 100 | 0.75 | N=C(N)Nc1ccc(C(=O)Oc2ccc(CC(=O)N[C@@H](CC(=O)O)C(=O)O)n3ccnc23)cc1
100 | 100 | 101 | 89.7 | 89.3 | 100 | 1.45 | N=C(N)Nc1ccc(C(=O)Oc2ccc(Cc3nn[nH]n3)n3ncnc23)cc1
99.7 | 68 | 99.6 | 47.8 | 11.5 | 100 |  | CC(=N)Nc1ccc(C(=O)Oc2ccc(CC(=O)O)n3ncnc23)cc1
25.5 | 2.74 | 12.2 | 0.5 | 1.62 | 51.8 |  | N=C(NN)c1ccc(C(=O)Oc2ccc(CC(=O)O)n3ncnc23)cc1
100 | 99.7 | 100 | 99.4 | 97.2 | 100 |  | N=C(N)Nc1ccc(C(=O)Oc2ccc(CC(=O)O)n3ncnc23)c(F)c1
99.9 | 80 | 98.8 | 36.3 | 14.6 | 100 |  | N=C(N)Nc1ccc(C(=O)Oc2ccc(CC(=O)O)n3ncnc23)c2ccoc12
18.6 | 1.21 | -6.7 | -11.2 | -0.24 | 6.8 |  | N=C(N)Nc1cccc(C(=O)Oc2ccc(CC(=O)O)n3ncnc23)c1
98.9 | 89.2 | 93.8 | 40.5 | 31.4 | 99.3 |  | CN(C(=N)N)c1ccc(C(=O)Oc2ccc(CC(=O)O)n3ncnc23)cc1
35.5 | 8.4 | 6.3 | 1.3 | 0 | 36.7 |  | Cc1cc(C(=O)Oc2ccc(CC(=O)O)n3ncnc23)ccc1NC(=N)N
9.42 | 0.59 | 1.32 | 1.35 | -1.72 | 12.6 |  | C/N=C(\NC)Nc1ccc(C(=O)Oc2ccc(CC(=O)O)n3ncnc23)cc1
100 | 100 | 99.5 | 92.1 | 96.5 | 100 |  | N=C(N)Nc1ncc(C(=O)Oc2ccc(CC(=O)O)n3ncnc23)cn1
